Source: patent US20180282297A1, “POLYMORPHS OF 3-(4-AMINO-1-OXOISOINDOLIN-2-YL)PIPERIDINE-2,6-DIONE” (Shenzhen Jingtai Technology Co., Ltd., priority 2017, published 2018)
Entries after “also recorded” stand apart in the source; their conditions may differ. Read-outs that look alike come from different tables or passages of the source. Values belong to the molecule of their own block, whether it stands above or below them.

Assays:
[1] = Powder dissolution study in water; format: physicochemical; conditions: 500 mg in 500 mL water, 50 rpm, up to 300 min
Method: Samples (2 mL) were collected at 1 min, 2 min, 5 min, 10 min, 15 min, 20 min, 30 min, 40 min, 50 min, 60 min, 80 min, 100 min, 120 min, 150 min, 180 min, 210 min, 240 min, 270 min, and 300 min. Water (2 mL) was added each time when a sample was taken. The XRPD of the solid samples were measured.

[2] = Study of polymorphic forms of Compound A stirred in water (XRPD); format: physicochemical; conditions: 300 rpm
Method: 600 mg Compound A was placed in a 100 mL container. After 40 mL water was added, the container was stirred at 300 rpm at 20° C. After 12 hours, a sample was taken from the container and an XRPD was measured. […] The XRPD, TG, and DSC of Form E are shown in FIGS. 12, 13, and 14, respectively.
600 mg Compound A was placed in a 100 mL container. After 40 mL water was added, the container was stirred at 300 rpm at 25° C. After 48 hours, a sample was taken from the container and an XRPD was measured. […] A sample taken after 168 hours at 25° C. still had the same XRPD as the Form E polymorph described in Chinese Patent No. 1871003.
600 mg Compound A was placed in a 100 mL container. After 40 mL water was added, the container was stirred at 300 rpm at 15° C. After 10 hours, a sample was taken from the container and an XRPD was measured.

[3] = cited from earlier work; for Hygroscopicity: Wt. increase: 5~95% RH
[4] = comparison polymorphs, cited from earlier work
[5] = comparison polymorphs, cited from earlier work; remark: listed apart in the source
[6] = cited from earlier work
[7] = in acetone; comparison polymorphs; listed as B; cited from earlier work
[8] = Stability of polymorphs in solution (suspension in solvent, XRPD of the solid); format: physicochemical; conditions: for Stability in solution: polymorph converted (Cv.) to: suspension kept at 20° C. for 24 hours; for Stability in solution: polymorphic form: ethanol, acetonitrile, tetrahydrofuran, ethyl acetate, and dioxane, 20° C. for 24 hours
Method: (§1) 15 mg of the polymorph obtained in Example 1 was placed in a 2 mL container. 1 mL of the each of the following solvents was added: methanol, ethanol, acetone, acetonitrile, tetrahydrofuran, nitromethane, ethyl acetate, or dioxane. The container was sonicated to dissolve Compound A. The resulting supersaturated suspension was kept at 20° C. for 24 hours. After centrifugation, the supernatant was removed, and the solid was dried at 45° C. for 2 hours. The XRPD of the solid was measured.
as §1, with “Example 4” for “Example 1”, “tetrahydrofuran,” for “tetrahydrofuran, nitromethane,”, “acetate, dioxane,” for “acetate,”, “or water.” for “or dioxane.”

[9] = Thermal stability (polymorph conversion on heating, XRPD); format: physicochemical
Method: In one embodiment, Form DH converts to a different polymorph at an elevated temperature (e.g., 170° C. or higher). In one embodiment, when heated to 170° C., Form DH converts to a polymorph characterized by an XRPD pattern substantially similar to that set forth in FIG. 10 (“Form F”). In one embodiment, when heated to 190° C., Form DH converts to a polymorph characterized by an XRPD pattern substantially similar to that set forth in FIG. 11 (“Form A”).
In one embodiment, Form α converts to a different polymorph at an elevated temperature (e.g., 230° C. or higher). In one embodiment, when heated to 230° C., Form α converts to a polymorph characterized by an XRPD pattern substantially similar to that set forth in FIG. 26 (“Form A”).

[10] = Hygroscopicity, dynamic vapor sorption (DVS); format: physicochemical; conditions: 25° C., 1~95% RH
Method: About 3 mg Form DH prepared in Example 1 was subject to dynamic vapor sorption analysis with a VTI-SA+ type dynamic vapor sorption analyzer (US TA Instruments Company). The temperature was 25° C., and the range of the relative humidity was 1-95%.
About 3 mg Form α prepared in Example 4 was subject to Dynamic Vapor Sorption analysis with a VTI-SA+ type dynamic vapor sorption analyzer (US TA Instruments Company). The temperature was 25° C., and the range of the relative humidity was 1-95%.

[11] = Crystallinity of polymorphs; format: physicochemical; conditions: polymorphs of the application
Method: XRPD patterns of the polymorphs obtained in the Examples were collected on a D/MAX 2500 diffractometer using the following setting: Cu Kα radiation λ 1.5418 Å, 40 kV, 200 mA, […] 2-40° at 8°/min.

[12] = Accelerated stability studies (storage, XRPD)
Method: 10 mg of Form DH or Form α of the present application was each put in a testing tube. The testing tubes were placed separately in sealed storage bags. The bags were stored under 40° C./75% RH or RT/P2O5. Samples of the polymorph were collected at day 1, day 3, day 5, day 7, day 14, day 21, and day 28 for XRPD measurement.

- Dissolution: crystal conversion (Cv.) during powder dissolution [1]: Form E
- Polymorphic form by XRPD after stirring in water ([2]; 15° C., 34 hours): Form DH
- Polymorphic form by XRPD after stirring in water ([2]; 15° C., after 10 hours): Form E
- Polymorphic form by XRPD after stirring in water ([2]; 20° C., 108 hours): Form DH
- Polymorphic form by XRPD after stirring in water ([2]; 20° C., after 12 hours): Form E
- Polymorphic form by XRPD after stirring in water ([2]; 25° C., after 48 hours): Form E
- Polymorphic form by XRPD after stirring in water ([2]; 25° C., after 168 hours): Form E
SMILES: Nc1cccc2c1CN(C1CCC(=O)NC1=O)C2=O (centres unmarked) [Compound A, 3-(4-amino-1-oxoisoindolin-2-yl)piperidine-2,6-dione]
- Hygroscopicity: Wt. increase [3]: No significant
- Crystallinity [4]: Good
- Thermal stability ([5]; temperature not given): No Cv.

SMILES: Nc1cccc2c1CN(C1CCC(=O)NC1=O)C2=O (centres unmarked) [Form B, 3-(4-amino-1-oxoisoindolin-2-yl)piperidine-2,6-dione]
- Accelerated stability ([6]; 85 days at 40° C./93% RH): Stable for 85
- Accelerated stability ([6]; 85 days at RT/0% RH): Stable for 85
- Hygroscopicity: Wt. increase [3]: No significant
- Crystallinity ([4]; listed as B): Good
- Stability in solution: polymorph converted (Cv.) to [7]: THF, to Form C
- Thermal stability: polymorph converted (Cv.) to ([5]; at 175° C.): Cv. to Form A at

SMILES: Nc1cccc2c1CN(C1CCC(=O)NC1=O)C2=O (centres unmarked) [Form C, 3-(4-amino-1-oxoisoindolin-2-yl)piperidine-2,6-dione]
- Hygroscopicity: Wt. loss ([3]; at 95% RH): by 6.03% at
- Crystallinity ([4]; listed as C): Good

SMILES: Nc1cccc2c1CN(C1CCC(=O)NC1=O)C2=O (centres unmarked) [Form D, 3-(4-amino-1-oxoisoindolin-2-yl)piperidine-2,6-dione]
- Crystallinity ([4]; listed as D): Good

- Stability in solution: polymorph converted (Cv.) to ([8]; in acetone): Form C
- Stability in solution: polymorph converted (Cv.) to ([8]; in acetone, listed as DH): Form C in
- Thermal stability: polymorph converted (Cv.) to ([9]; heated to 170° C.): Form F
- Thermal stability: polymorph converted (Cv.) to ([9]; heated to 190° C.): Form A
- Hygroscopicity: Wt. increase [10]: No weight increase
- Hygroscopicity: crystal form after DVS [10]: remained unchanged
- Hygroscopicity: Wt. increase ([10]; listed as DH): No significant
- Hygroscopicity: crystal form after DVS ([10]; listed as DH): No change
- Dissolution: crystal conversion (Cv.) during powder dissolution [1]: did not change
- Crystallinity [11]: Good
- Accelerated stability (stable, or polymorph converted to) ([12]; 28 days at 40° C./75% RH): stable
- Accelerated stability (stable, or polymorph converted to) ([12]; 28 days at 40° C./75% RH, listed as DH): Stable
SMILES: Nc1cccc2c1CN(C1CCC(=O)NC1=O)C2=O (centres unmarked) [Form DH, 3-(4-amino-1-oxoisoindolin-2-yl)piperidine-2,6-dione]
- Stability in solution: polymorphic form ([8]; in water, methanol): maintained its polymorphic form as Form DH; also recorded: stable

SMILES: Nc1cccc2c1CN(C1CCC(=O)NC1=O)C2=O (centres unmarked) [Form E, 3-(4-amino-1-oxoisoindolin-2-yl)piperidine-2,6-dione]
- Crystallinity ([4]; listed as E): Good

SMILES: Nc1cccc2c1CN(C1CCC(=O)NC1=O)C2=O (centres unmarked) [Form H, 3-(4-amino-1-oxoisoindolin-2-yl)piperidine-2,6-dione]
- Crystallinity [4]: relatively poor

- Stability in solution: polymorph converted (Cv.) to ([8]; in water): Form DH
- Thermal stability: polymorph converted (Cv.) to ([9]; heated to 230° C.): Form A
- Hygroscopicity: crystal form after DVS [10]: remained unchanged
- Hygroscopicity: Wt. increase ([10]; listed as α): No significant
- Hygroscopicity: crystal form after DVS ([10]; listed as α): No change
- Dissolution: crystal conversion (Cv.) during powder dissolution [1]: Form E
- Crystallinity [11]: Good
- Accelerated stability (stable, or polymorph converted to) ([12]; 28 days at RT/P2O5): did not change
- Accelerated stability (stable, or polymorph converted to) ([12]; 28 days at RT/P2O5, listed as α): Stable after
SMILES: Nc1cccc2c1CN(C1CCC(=O)NC1=O)C2=O (stereo not drawn) [Form α, 3-(4-amino-1-oxoisoindolin-2-yl)piperidine-2,6-dione]
- Stability in solution: polymorphic form ([8]; in methanol, acetone): stable; also recorded: maintained its polymorphic form as Form α
